In this test the target is T1, human NK1 receptor (Homo sapiens, UniProt P25103).
T1 construct: expressed in transfected cells; host or cells: CHO cells, Semliki virus expression system; membrane suspension
Description: NK1 receptor binding, [3H]substance P displacement. Particulars: for Ki: human NK1 receptors in CHO cells, [3H]substance P 0.6 nM, read-out: pKi (affinity to the NK-1 receptor) (converted); for relative activity of enantiomer in the test for NK-1 binding: enantiomer fraction from Chiralpak AD separation of the racemate. The method, then: The affinity of test compounds for the NK1 receptor was evaluated at human NK1 receptors in CHO cells infected with the human NK1 receptor (using the Semliki virus expression system) and radiolabelled with [^3H]substance P (final concentration 0.6 nM). Binding assays were performed in HEPES buffer (50 mM, pH 7.4) containing BSA (0.04%) leupeptin (8 μg/ml), MnCl2 (3 mM) and phosphoramidon (2 μM). Binding assays consisted of 250 μl of membrane suspension (1.25×10^5 cells/assay tube), […] of buffer of displacing agent and 125 μl of [^3H]substance P. Displacement curves were determined with at least seven concentrations of the compound. The assay tubes were incubated for 60 min at room temperature after which time the tube contents were rapidly filtered under vacuum through GF/C filters presoaked for 60 min with PEI (0.3%) with 2×2 ml washes of HEPES buffer (50 mM, pH 7.4). The radioactivity retained on the filters was measured by scintillation counting. All assays were performed in triplicate in at least 2 separate experiments.

SMILES strings stand for the structures.

T1 sequence (P25103 whole entry): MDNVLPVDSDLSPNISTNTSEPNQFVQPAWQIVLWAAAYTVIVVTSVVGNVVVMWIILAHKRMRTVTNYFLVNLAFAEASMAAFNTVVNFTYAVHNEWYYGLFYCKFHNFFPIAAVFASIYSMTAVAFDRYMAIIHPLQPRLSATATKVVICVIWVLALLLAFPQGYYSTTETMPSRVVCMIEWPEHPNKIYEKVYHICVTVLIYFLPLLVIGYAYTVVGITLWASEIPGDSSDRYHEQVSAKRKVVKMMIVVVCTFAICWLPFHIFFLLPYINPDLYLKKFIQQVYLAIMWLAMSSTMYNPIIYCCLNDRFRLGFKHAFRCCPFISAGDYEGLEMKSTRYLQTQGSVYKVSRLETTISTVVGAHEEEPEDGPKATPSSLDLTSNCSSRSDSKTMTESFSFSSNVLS

Regarding `O=C(NC1CCCN(C2CCN(C(=O)c3cc(C(F)(F)F)cc(C(F)(F)F)c3)CC2c2ccc(F)cc2)C1)C1CC1` (mixture of isomers) [Example 77, (3RS,3′RS,4SR)- and (3RS,3′SR,4SR)-Cyclopropanecarboxylic acid [1′-(3,5-bis-trifluoromethyl-benzoyl)-3′-(4-fluoro-phenyl)-[1,4′]bipiperidinyl-3-yl]-amide], the Ki was 2.95 nM. As to `O=C(Cc1ccccc1)NC1CCCN(C2CCN(C(=O)c3cc(C(F)(F)F)cc(C(F)(F)F)c3)CC2c2ccc(F)cc2)C1` (mixture of isomers) [Example 79, (3RS,3′RS,4SR)- and (3RS,3′SR,4SR)-N-[1′-(3,5-Bis-trifluoromethyl-benzoyl)-3′-(4-fluoro-phenyl)-[1,4′]bipiperidinyl-3-yl]-2-phenyl-acetamide], the Ki is 2.04 nM. Consider `NC1CCN(C2CCN(C(=O)c3cc(C(F)(F)F)cc(C(F)(F)F)c3)CC2c2ccc(F)cc2)C1` (mixture of isomers) [Example 118, (3RS,3′RS,4SR)- and (3RS,3′SR,4SR)-[4-(3-Amino-pyrrolidin-1-yl)-3-(4-fluoro-phenyl)-piperidin-1-yl]-(3,5-bis-trifluoromethyl-phenyl)-methanone], for which the Ki was 1.78 nM.

Turning to `O=C(c1cc(C(F)(F)F)cc(C(F)(F)F)c1)N1CCC(N2CCC(OCC3CC3)CC2)C(c2ccc(Cl)cc2)C1` (racemic) [Example 66, Rac-cis-(3,5-Bis-trifluoromethyl-phenyl)-[3′-(4-chloro-phenyl)-4-cyclopropylmethoxy-[1,4′]bipiperidinyl-1′-yl]-methanone], the Ki is 2.75 nM. Turning to `O=C(c1cc(C(F)(F)F)cc(C(F)(F)F)c1)N1CC[C@H](N2CCNCC2)[C@H](c2ccc(F)cc2)C1` (racemic) [Example 82, Rac-cis-(3,5-Bis-trifluoromethyl-phenyl)-[3-(4-fluoro-phenyl)-4-piperazin-1-yl-piperidin-1-yl]-methanone], the Ki is 2.09 nM. The same measure, in the same setting: then `O=C(c1cc(C(F)(F)F)cc(C(F)(F)F)c1)N1CC[C@H](N2CCN(CC3CC3)CC2)[C@H](c2ccc(F)cc2)C1` (racemic) [Example 88, Rac-cis-(3,5-Bis-trifluoromethyl-phenyl)-[4-(4-cyclopropylmethyl-piperazin-1-yl)-3-(4-fluoro-phenyl)-piperidin-1-yl]-methanone], with 3.16 nM. The same measure, in the same setting: then `O=C(c1cc(C(F)(F)F)cc(C(F)(F)F)c1)N1CC[C@H](N2CCN(C(=O)C(F)(F)F)CC2)[C@H](c2ccc(Cl)cc2)C1` (racemic) [Example 106, Rac-cis-1-{4-[1-(3,5-Bis-trifluoromethyl-benzoyl)-3-(4-chloro-phenyl)-piperidin-4-yl]-piperazin-1-yl}-2,2,2-trifluoro-ethanone], with 3.16 nM; and `CN(C)C1CCN(C2CCN(C(=O)c3cc(C(F)(F)F)cc(C(F)(F)F)c3)CC2c2ccc(Cl)cc2)CC1` (racemic) [Example 107, Rac-cis-(3,5-bis-trifluoromethyl-phenyl)-[3′-(4-chloro-phenyl)-4-dimethylamino-[1,4′]bipiperidinyl-1′-yl]-methanone], with 0.631 nM; and `O=C(c1cc(C(F)(F)F)cc(C(F)(F)F)c1)N1CCC(N2CCC(N3CCOCC3)CC2)C(c2ccc(Cl)cc2)C1` (racemic) [Example 109, Rac-cis-(3,5-Bis-trifluoromethyl-phenyl)-[3′-(4-chloro-phenyl)-4-morpholin-4-yl-[1,4′]bipiperidinyl-1′-yl]-methanone], with 1.62 nM. For `O=C(c1cc(C(F)(F)F)cc(C(F)(F)F)c1)N1CCC(N2CCC(NC3CC3)CC2)C(c2ccc(Cl)cc2)C1` (racemic) [Example 112, Rac-cis-(3,5-Bis-trifluoromethyl-phenyl)-[3′-(4-chloro-phenyl)-4-cydopropylamino-[1,4′]bipiperidinyl-1′-yl]-methanone], the Ki was 0.794 nM. In the case of `O=C(c1cc(C(F)(F)F)cc(C(F)(F)F)c1)N1CC[C@@H](N2CCN(C(=O)C3CC3)CC2)[C@@H](c2ccccc2)C1` (single isomer, unassigned) [Example 65, (+)-(3,5-Bis-trifluoromethyl-phenyl)-[4-(4-cyclopropanecarbonyl-piperazin-1-yl)-3-phenyl-piperidin-1-yl]-methanone], the “relative activity of enantiomer in the test for NK-1 binding” value (“relative activity of enantiomer” below) is reported as “more active enantiomer” and the Ki is 1.41 nM. For the molecule `O=C(c1cc(C(F)(F)F)cc(C(F)(F)F)c1)N1CC[C@@H](N2CCOCC2)[C@@H](c2ccc(Cl)cc2)C1` (single isomer, unassigned) [Example 70, (−)-(3,5-Bis-trifluoromethyl-phenyl)-[3-(4-chloro-phenyl)-4-morpholin-4-yl-piperidin-1-yl]-methanone], the “relative activity of enantiomer” value is “more active enantiomer” and the Ki is 2.57 nM.

As to `O=C(c1cc(C(F)(F)F)cc(C(F)(F)F)c1)N1CC[C@@H](N2CCCC2)[C@@H](c2ccc(Cl)cc2)C1` (single isomer, unassigned) [Example 80, (−)-(3,5-Bis-trifluoromethyl-phenyl)-[3-(4-chloro-phenyl)-4-pyrrolidin-1-yl-piperidin-1-yl]-methanone], the “relative activity of enantiomer” value is recorded as “more active enantiomer” and the Ki is 3.16 nM.

For `CN1CCN([C@@H]2CCN(C(=O)c3cc(C(F)(F)F)cc(C(F)(F)F)c3)C[C@@H]2c2ccc(F)cc2)CC1` (single isomer, unassigned) [Example 90, (−)-(3,5-Bis-trifluoromethyl-phenyl)-[3-(4-fluoro-phenyl)-4-(4-methyl-piperazin-1-yl)-piperidin-1-yl]-methanone], the “relative activity of enantiomer” value is given as “more active enantiomer” and the Ki is 2.45 nM. In the same order, the values of `CN1CCN([C@@H]2CCN(C(=O)c3cc(C(F)(F)F)cc(C(F)(F)F)c3)C[C@@H]2c2ccccc2)CC1` (single isomer, unassigned) [Example 92, (−)-(3,5-Bis-trifluoromethyl-phenyl)-[3-phenyl-4-(4-methyl-piperazin-1-yl)-piperidin-1-yl]-methanone] are “more active enantiomer” and 2.69 nM. In the same order, the values of `O=C(c1cc(C(F)(F)F)cc(C(F)(F)F)c1)N1CC[C@@H](N2CCN(C(=O)C(F)(F)F)CC2)[C@@H](c2ccc(Cl)cc2)C1` (single isomer, unassigned) [Example 108, (−)-1-{4-[1-(3,5-Bis-trifluoromethyl-benzoyl)-3-(4-chloro-phenyl)-piperidin-4-yl]-piperazin-1-yl}-2,2,2-trifluoro-ethanone] are “more active enantiomer” and 1.29 nM.

Take `O=C(c1cc(C(F)(F)F)cc(C(F)(F)F)c1)N1CC[C@@H](N2CCN(C3CC3)CC2)[C@@H](c2ccccc2)C1` (single isomer, unassigned) [Example 119, (−)-(3,5-Bis-trifluoromethyl-phenyl)-[4-(4-cyclopropyl-piperazin-1-yl)-3-phenyl-piperidin-1-yl]-methanone]: the Ki was 1 nM.

On to `O=C(c1cc(C(F)(F)F)cc(C(F)(F)F)c1)N1CCC(N2CCN(C(=O)C3CC3)CC2)C(c2ccc(F)cc2)C1` (single isomer, unassigned; (+)) [Example 85, (+)-(3,5-Bis-trifluoromethyl-phenyl)-[4-(4-cyclopropanecarbonyl-piperazin-1-yl)-3-(4-fluoro-phenyl)-piperidin-1-yl]-methanone], for which the “relative activity of enantiomer” value is “more active enantiomer”. Still for that read-out and setting: then `CN1CCN(C2CCN(C(=O)c3cc(Cl)cc(Cl)c3)CC2c2ccccc2)CC1` (single isomer, unassigned; (+)) [Example 127, (+)-(3,5-Dichloro-phenyl)-[4-(4-methyl-piperazin-1-yl)-3-phenyl-piperidin-1-yl]-methanone], with “more active enantiomer”; and `Cc1ccc(C2CN(C(=O)c3cc(C(F)(F)F)cc(C(F)(F)F)c3)CCC2N2CCN(C(=O)C(F)(F)F)CC2)cc1` (single isomer, unassigned; (-)) [Example 100, (−)-{4-[1-(3,5-Bis-trifluoromethyl-benzoyl)-3-p-tolyl-piperidin-4-yl]-piperazin-1-yl}-2,2,2-trifluoro-ethanone], with “more active enantiomer”. For the molecule `CC(C)(C)OC(=O)N1CCN(C2CCN(C(=O)c3cc(C(F)(F)F)cc(C(F)(F)F)c3)CC2c2ccccc2)CC1` (single isomer, unassigned; (-)) [Example 101, (−)-4-[1-(3,5-Bis-trifluoromethyl-benzoyl)-3-phenyl-piperidin-4-yl]-piperazine-1-carboxylic Acid Tert-Butyl Ester], the “relative activity of enantiomer” value was “more active enantiomer”. With `Cc1ccc(C2CN(C(=O)c3cc(C(F)(F)F)cc(C(F)(F)F)c3)CCC2N2CCN(C(=O)C3CC3)CC2)cc1` (single isomer, unassigned; (-)) [Example 103, (−)-(3,5-Bis-trifluoromethyl-phenyl)-[4-(4-cyclopropanecarbonyl-piperazin-1-yl)-3-p-tolyl-piperidin-1-yl]-methanone], the Ki was 2.14 nM.

The record behind these values is patent publication US6642226B2, “Substituted phenyl-piperidine methanone compounds” (Hoffman-La Roche Inc., priority 2001, dated 2003).
